The structures appear in SMILES notation. pEC50: −log10 of the molar value. Read-outs that look alike come from different tables or passages of the source.

The target in this assay is T1, glucocorticoid receptor (GR) (Homo sapiens, UniProt P04150).
T1 sequence (P04150 1-777): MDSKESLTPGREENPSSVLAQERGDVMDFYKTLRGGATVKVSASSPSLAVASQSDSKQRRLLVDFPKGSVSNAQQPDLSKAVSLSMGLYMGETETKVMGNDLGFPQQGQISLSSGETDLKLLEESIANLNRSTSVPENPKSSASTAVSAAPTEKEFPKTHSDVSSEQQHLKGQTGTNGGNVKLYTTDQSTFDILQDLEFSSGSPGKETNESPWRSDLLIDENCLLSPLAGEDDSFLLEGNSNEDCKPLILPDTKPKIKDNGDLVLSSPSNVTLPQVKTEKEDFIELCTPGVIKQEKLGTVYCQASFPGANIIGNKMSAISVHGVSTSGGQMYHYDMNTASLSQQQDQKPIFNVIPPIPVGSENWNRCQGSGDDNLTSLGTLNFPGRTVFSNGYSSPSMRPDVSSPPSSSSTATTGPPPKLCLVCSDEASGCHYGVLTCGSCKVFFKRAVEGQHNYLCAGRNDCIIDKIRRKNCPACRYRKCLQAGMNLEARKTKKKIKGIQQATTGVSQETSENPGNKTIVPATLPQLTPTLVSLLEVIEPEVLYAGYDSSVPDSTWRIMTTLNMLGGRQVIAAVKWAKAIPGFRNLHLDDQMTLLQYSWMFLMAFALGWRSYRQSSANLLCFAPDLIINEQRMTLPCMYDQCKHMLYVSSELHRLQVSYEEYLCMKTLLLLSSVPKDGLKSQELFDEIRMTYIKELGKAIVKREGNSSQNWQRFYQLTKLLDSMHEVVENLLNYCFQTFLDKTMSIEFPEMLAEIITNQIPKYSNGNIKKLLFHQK
Description: GR-EFC nuclear translocation assay. In kind it is cell-based. The settings on record: for pEC50: read-out: qEC50; for qHTS Hill Slope: Hill slope of the qHTS curve fit; for log qEC50: log10 of qEC50 in M, printed as negative values; for qHTS Max Activity: maximal activity of the qHTS curve, inactive threshold […] (3σ). (In general: Quantitative high-throughput screening tests each substance at several concentrations.)

Setting [1] is: qHTS curve fit, class 4 values are fit defaults.
The mark [2] stands for this setting: class 4 values are fit defaults.

For `C[C@]12CC[C@H](O)C[C@@H]1CC[C@H]1[C@H]2CC[C@]2(C)[C@H](C(=O)CO)CC[C@@H]12` [NCGC00015805-01], the pEC50 under setting [1] was under 5.05.
On to `C[C@@]12CCC(=O)C=C1CC[C@H]1[C@H]3CC[C@](O)(C(=O)CO)[C@]3(C)CC[C@@H]12` [NCGC00015886-01], for which the “qHTS Hill Slope” value is 0.59 and the “qHTS Max Activity” value was found to be 41.2. In addition, under setting [2], the “log qEC50” value is −6.363. The pEC50 under setting [1] is 6.36.
With `C[C@@]12CC[C@@H]3c4ccc(OS(=O)(=O)O)cc4CC[C@H]3[C@H]1CCC2=O` [NCGC00016682-01], the pEC50 under setting [1] is under 5.05.
As for `CC(=O)OCC(=O)[C@@]1(O)CC[C@@H]2[C@H]3CCC4=CC(=O)CC[C@]4(C)[C@]3(F)[C@@H](O)C[C@@]21C` [NCGC00016476-01], the “qHTS Hill Slope” value was found to be 0.75 and the “qHTS Max Activity” value is 74.0.
As to `C[C@@]12CC[C@H]3[C@@H](CC[C@@H]4C[C@H](O)CC[C@]43C)[C@H]1CC[C@H]2O` [NCGC00015090-01], under setting [1], the pEC50 is under 5.05.
For `CC(=O)CC(=O)[C@@]1(O)CC[C@@H]2[C@@H]3C=C(C)C4=CC(=O)CC[C@@H]4[C@H]3CC[C@]21C` [NCGC00016884-01], the “qHTS Hill Slope” value came to 0.57 and the “qHTS Max Activity” value is 15.6.
For the compound `CC(=O)OCC(=O)[C@H]1CC[C@H]2[C@@H]3CC[C@H]4C[C@H](O)CC[C@]4(C)[C@H]3C(=O)C[C@]12C` [NCGC00016783-01], the pEC50 under setting [1] was under 5.05.
For `C#C[C@]1(O)CC[C@@H]2[C@H]3CCC4=Cc5oncc5C[C@]4(C)[C@@H]3CC[C@@]21C` [NCGC00016726-01], the “qHTS Curve Class” value was 4 (inactive, where activity was below 28.6% (3σ for the present assay)) and the pEC50 is under 5.05.
Turning to `C[C@@]12C[C@@H](O)[C@H]3[C@@H](CCC4=CC(=O)CC[C@]43C)[C@H]1CC[C@H]2C(=O)CO` [NCGC00016214-01], the “qHTS Hill Slope” value is reported as 1.35 and the “qHTS Max Activity” value was 37.8. Further, the “log qEC50” value under setting [2] is −7.782. The pEC50 under setting [1] is 7.78.
In the same order, the values of `CC(=O)[C@@]1(O)CC[C@H]2[C@@H]3C[C@H](C)C4=CC(=O)C=C[C@]4(C)[C@@]3(F)[C@@H](O)C[C@@]21C` [NCGC00016442-01] are 0.63, 84.0, −8.086 and 8.09.
Turning to `CC(=O)O[C@]1(C(C)=O)CC[C@H]2[C@@H]3C=C(C)C4=CC(=O)CC[C@]4(C)[C@H]3CC[C@@]21C` [NCGC00016516-01], the “qHTS Hill Slope” value came to 0.49 and the “qHTS Max Activity” value was 47.2. For the same compound, the “log qEC50” value under setting [2] is on record as −7.254. Under setting [1], the pEC50 was 7.25.
On the same counts, the results for `CC(=O)OCC(=O)[C@@]1(O)CC[C@H]2[C@@H]3CCC4=CC(=O)C=C[C@]4(C)[C@@]3(F)[C@@H](O)C[C@@]21C` [NCGC00016433-01] are 0.52, 80.8, −7.456 and 7.46.
In the same order, the values of `CC1(C)O[C@@H]2C[C@H]3[C@@H]4C[C@H](F)C5=CC(=O)C=C[C@]5(C)[C@H]4[C@@H](O)C[C@]3(C)[C@]2(C(=O)CO)O1` [NCGC00016983-01] are 0.57, 97.1, −8.315 and 8.31.
On the same counts, the results for `C[C@]12C=CC(=O)C=C1CC[C@@H]1[C@H]3C[C@@H](O)[C@](O)(C(=O)CO)[C@@]3(C)C[C@H](O)[C@]12F` [NCGC00016376-01] are 1.15, 67.5, −7.082 and 7.08.
In the case of `C[C@@H]1[C@H]2CC[C@@H]3[C@@H]4CC=C5C[C@@H](N(C)C)CC[C@]5(C)[C@@H]4CC[C@@]32CN1C` [NCGC00016502-01], the pEC50 under setting [1] is under 5.05.
Consider `CC(=O)[C@@H]1CC[C@@H]2[C@@H]3CC=C4C[C@H](OS(=O)(=O)O)CC[C@@]4(C)[C@H]3CC[C@]21C` [NCGC00016184-01], for which the pEC50 under setting [1] was under 5.05.
Take `CC(C)CCC(=O)O.C[C@@]12CCC(=O)C[C@@H]1CC(=O)[C@H]1[C@H]3CCC[C@]3(C)C(=O)C[C@@H]12` [NCGC00017016-01]: the “qHTS Curve Class” value is 4 (inactive, where activity was below 28.6% (3σ for the present assay)) and the pEC50 was under 5.05.
As to `C[C@]12Cc3cn4c(nc3C=C1CC[C@H]1[C@@H]2CC[C@@]2(C)[C@H]1CC[C@@]2(O)C#N)nc1ccccc14` [NCGC00016090-01], the “qHTS Curve Class” value is 4 (inactive, where activity was below 28.6% (3σ for the present assay)) and the pEC50 is under 5.05.
Consider `C#C[C@]1(O)CC[C@H]2[C@@H]3CCC4=CCCC[C@@H]4[C@H]3CC[C@@]21C` [NCGC00016233-01], for which the “qHTS Curve Class” value was 4 (inactive, where activity was below 28.6% (3σ for the present assay)) and the pEC50 was under 5.05.
For the compound `CC(=O)[C@H]1CC[C@H]2[C@@H]3C=CC4=CC(=O)CC[C@@]4(C)[C@@H]3CC[C@]12C` [NCGC00016413-01], the “qHTS Curve Class” value is 4 (inactive, where activity was below 28.6% (3σ for the present assay)) and the pEC50 is under 5.05.
For `C[C@]12C=CC(=O)C=C1CC[C@@H]1[C@H]3C[C@@H](O)[C@](O)(C(=O)CO)[C@]3(C)C[C@H](O)[C@]12F` [NCGC00016037-01], the “qHTS Hill Slope” value is 1.03 and the “qHTS Max Activity” value came to 113.5. The “log qEC50” value under setting [2] was −6.563. Moreover, the pEC50 under setting [1] was 6.56.
In the case of `CC[C@@H]1Cc2cc(O)ccc2C2=C1c1ccc(O)cc1C[C@H]2CC` [NCGC00015377-01], the “qHTS Curve Class” value was 4 (inactive, where activity was below 28.6% (3σ for the present assay)) and the pEC50 is under 5.05.
`C[C@@]12CCC(=O)C=C1CC[C@@H]1[C@@H]2[C@H](O)C[C@]2(C)[C@@H]1CC[C@]2(O)C(=O)CO` [NCGC00015507-01]: the “qHTS Hill Slope” value worked out at 0.55 and the “qHTS Max Activity” value came to 123.7.
On to `C[C@@]12CCC(=O)C=C1CC[C@@H]1[C@@H]2[C@H](O)C[C@]2(C)[C@@H]1CC[C@]2(O)C(=O)COC(=O)CCC(=O)[O-].[Na+]` [NCGC00016153-01], for which the “qHTS Hill Slope” value was determined as 0.62 and the “qHTS Max Activity” value is on record as 100.0. Besides, the “log qEC50” value under setting [2] is on record as −5.952. For the same compound, the pEC50 under setting [1] is 5.95.
For `COc1ccc2c(c1)CC[C@H]1[C@H]2CC[C@]2(C)[C@H](NCCCCCCN3C(=O)C=CC3=O)CC[C@@H]12` [NCGC00016078-01], the pEC50 under setting [1] is under 5.05.
As for `C[C@H]1CC[C@]2(NC1)O[C@@H]1C[C@@H]3[C@@H]4CC=C5C[C@H](O)CC[C@@]5(C)[C@H]4CC[C@@]3(C)[C@H]1[C@@H]2C` [NCGC00017170-01], under setting [1], the pEC50 is under 5.05.
As for `C[C@]12CC[C@@H]3C(=CCc4cc(O)ccc43)[C@@H]1CCC2=O` [NCGC00016451-01], the “qHTS Curve Class” value was 4 (inactive, where activity was below 28.6% (3σ for the present assay)) and the pEC50 was under 5.05.
With `C[C@]12CC[C@@H]3c4ccc(O)cc4CC[C@H]3[C@@H]1CC[C@@H]2OC(=O)CCC1CCCC1` [NCGC00013034-01], under setting [1], the pEC50 was under 5.05.
Regarding `C[C@]12CC[C@H]3c4ccc(OC[C@H]5CO5)cc4CC[C@H]3[C@H]1CC[C@@H]2O` [NCGC00017797-01], the pEC50 under setting [1] was under 5.05.
